Reference: patent US20200131669A1, “CYCLIC PEPTIDE COMPOUND HAVING HIGH MEMBRANE PERMEABILITY, AND LIBRARY CONTAINING SAME” (Chugai Seiyaku Kabushiki Kaisha, priority 2017, published 2020)
Starred links: 1 amine or outer side, 2 acyl side, 3 side chain; linkers in the order of their positions; H or OH if unused. Positions of bridges follow the written chain, without caps; N, C: chain ends. Non-standard residues stand in square brackets, D forms with d. Residues, ends and D or L forms follow the SMILES beside them. ξ: configuration not given here. *: point of attachment. Phe(4-CF3) = N[C@@H](Cc1ccc(C(F)(F)F)cc1)C(=O)O; Phe(4-CHF2) = N[C@@H](Cc1ccc(C(F)F)cc1)C(=O)O; NMePhe(3-Cl) = CN[C@@H](Cc1cccc(Cl)c1)C(=O)O; hNle(7,7-F2) = N[C@@H](CCCCC(F)F)C(=O)O; NMehPhe = CN[C@@H](CCc1ccccc1)C(=O)O; Ethyl(2-morpholino) = C1CN(CC*)CCO1; hhPhe = N[C@@H](CCCc1ccccc1)C(=O)O; X3 = O=C([C@H](CCCCO)N[*:1])[*:2]; Gly(N-(CH2)2OEt) = CCOCCNCC(=O)O; NMeF = CN[C@@H](Cc1ccccc1)C(=O)O; NMeGABA = CN(CCCC(=O)[*:2])[*:1]; NMeI = CC[C@H](C)[C@H](NC)C(=O)O; Butyl(3-Me,3-OH) = CC(C)(O)CC*; NMeL = CN[C@@H](CC(C)C)C(=O)O; NMeV = CN[C@H](C(=O)O)C(C)C; NMeAbu = CC[C@H](NC)C(=O)O; NMeA = CN[C@@H](C)C(=O)O; Piperidide = C1CCN(*)CC1; CH2CMe2OH = CC(C)(O)C*; NBuGly = CCCCNCC(=O)O; Isopentyl = CC(C)CC*; NPrGly = CCCNCC(=O)O; ξS = NC(CO)C(=O)O; Sar = CNCC(=O)O; tBu = CC(C)(C)*

Assay: Caco-2 membrane permeability, improved method as used in the following Examples (96-well, 20 to 24 h preincubation)
Format: in vitro ADME
Conditions: Caco-2, Caco-2
Method in brief: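 Papp (cm/sec) was derived from LC/MS of basal samples collected 180 min after apical dosing in FaSSIF/HBSS pH 6.0 with 1% DMSO, against a basal HBSS pH 7.4 receiver containing 4% BSA. Three-week Caco-2 cultures were first preincubated with compound in DMEM+FaSSIF at 37 °C for 20–24 h.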
In the case of `CC(C)C[C@@H]1NC(=O)[C@H](CCc2ccccc2)N(C)C(=O)[C@@H](C(C)C)NC(=O)C[C@@H](C(=O)N2CCCCC2)NC(=O)[C@H](CC(C)C)N(C)C(=O)[C@H](Cc2ccccc2)N(C)C(=O)[C@H](COCCC(C)(C)O)NC(=O)[C@H](CC(C)C)N(C)C(=O)CN(C)C(=O)[C@H]([C@@H](C)O)NC(=O)[C@H](CC(C)C)N(C)C1=O` [pd438] ([dV][NMehPhe]L[NMeL]T[Sar][NMeL]S(Butyl(3-Me,3-OH))[NMeF][NMeL]D-Piperidide; lactam N-11), the Papp A→B is reported as 1 ×10⁻⁶ cm/s. Compound `CC(C)C[C@H]1C(=O)N[C@@H](CCCc2ccccc2)C(=O)N(C)[C@@H](Cc2ccccc2)C(=O)N(C)[C@@H](C(C)C)C(=O)N[C@H](C(=O)N2CCCCC2)CC(=O)N[C@H](C)C(=O)N(C)[C@@H](Cc2ccccc2)C(=O)N[C@@H](C(C)C)C(=O)N(C)[C@@H](CC(C)C)C(=O)N[C@@H]([C@@H](C)O)C(=O)N(C)CC(=O)N1C` [pd364] ([dA][NMeF]V[NMeL]T[Sar][NMeL][hhPhe][NMeF][NMeV]D-Piperidide; lactam N-11) has a Papp A→B of 1 ×10⁻⁶ cm/s.

Same assay, conditions: Caco-2, Caco-2 (cm/sec)
`CC(C)C[C@H]1C(=O)N[C@@H](COC(C)(C)C)C(=O)N(C)[C@@H](C(C)C)C(=O)N(C)[C@@H](C)C(=O)N[C@H](C(=O)N2CCCCC2)CC(=O)N[C@H](C)C(=O)N(C)[C@@H](Cc2ccccc2)C(=O)N[C@@H](Cc2ccc(C(F)(F)F)cc2)C(=O)N(C)[C@@H](CC(C)C)C(=O)N[C@@H]([C@@H](C)O)C(=O)N(C)CC(=O)N1C` [pd130] ([dA][NMeF][Phe(4-CF3)][NMeL]T[Sar][NMeL]S(tBu)[NMeV][NMeA]D-Piperidide; lactam N-11) showed a Papp A→B of 1.1 ×10⁻⁶ cm/s.

Same assay, conditions: human, Caco-2, Caco-2
For `CCOCCN1CC(=O)N(C)[C@@H](CC(C)C)C(=O)N[C@H](C(=O)N2CCCCC2)CC(=O)N(C)[C@@H](C(C)C)C(=O)N[C@@H](CC(C)C)C(=O)N(C)[C@@H](CC)C(=O)N(C)[C@@H](Cc2ccccc2)C(=O)N[C@@H](CC(C)C)C(=O)N(C)[C@@H](Cc2ccccc2)C(=O)N(C)[C@@H](CC)C(=O)N[C@@H]([C@@H](C)O)C1=O` [pd417] ([NMeV]L[NMeAbu][NMeF]L[NMeF][NMeAbu]T[Gly(N-(CH2)2OEt)][NMeL]D-Piperidide; lactam N-11), the Papp A→B at 180 min was 1 ×10⁻⁶ cm/s. `CC(C)C[C@H]1C(=O)N[C@H](C(=O)N2CCCCC2)CC(=O)N(C)[C@@H](C)C(=O)N[C@@H](C(C)C)C(=O)N(C)[C@@H](CC(C)C)C(=O)N(C)[C@@H](Cc2ccccc2)C(=O)N[C@@H](C(C)C)C(=O)N(C)[C@@H](Cc2ccccc2)C(=O)N(C)[C@@H](CC(C)C)C(=O)N[C@@H](CCCCO)C(=O)N(C)CC(=O)N1C` [pd448] ([NMeA]V[NMeL][NMeF]V[NMeF][NMeL][X3][Sar][NMeL]D-Piperidide; lactam N-11) gave a Papp A→B at 180 min of 1.3 ×10⁻⁶ cm/s. For `CC[C@H](C)[C@H]1C(=O)N[C@@H]([C@@H](C)O)C(=O)N(C)CC(=O)N(C)[C@@H](CC(C)C)C(=O)N[C@H](C(=O)N2CCCCC2)CC(=O)N(C)[C@@H](C)C(=O)N[C@@H](CCCCC(F)F)C(=O)N(C)[C@@H](CC(C)C)C(=O)N(C)[C@@H](Cc2ccccc2)C(=O)N[C@@H](C(C)C)C(=O)N(C)[C@@H](Cc2ccccc2)C(=O)N1C` [pd334] ([NMeA][hNle(7,7-F2)][NMeL][NMeF]V[NMeF][NMeI]T[Sar][NMeL]D-Piperidide; lactam N-11), the Papp A→B at 180 min was 2.4 ×10⁻⁶ cm/s. Compound `CCCN1CC(=O)N(C)[C@@H](CC(C)C)C(=O)N[C@@H](COCCC(C)C)C(=O)N(C)[C@@H](Cc2ccccc2)C(=O)N(C)[C@@H](C(C)C)C(=O)N[C@H](C(=O)N2CCCCC2)CC(=O)N[C@H](C(C)C)C(=O)N(C)[C@@H](Cc2ccccc2)C(=O)N[C@@H](COCC(C)(C)O)C(=O)N(C)[C@@H](CC(C)C)C(=O)N[C@@H]([C@@H](C)O)C1=O` [pd426] ([dV][NMeF]S(CH2CMe2OH)[NMeL]T[NPrGly][NMeL]S(Isopentyl)[NMeF][NMeV]D-Piperidide; lactam N-11) has a Papp A→B at 180 min of 1.4 ×10⁻⁶ cm/s. `CC(C)CCOC[C@@H]1NC(=O)[C@H](Cc2ccccc2)N(C)C(=O)[C@@H](C)NC(=O)C[C@@H](C(=O)N2CCCCC2)NC(=O)[C@H](CC(C)C)N(C)C(=O)[C@H](Cc2ccccc2)N(C)C(=O)[C@H](COC(C)(C)C)NC(=O)[C@H](CC(C)C)N(C)C(=O)CN(C)C(=O)[C@H]([C@@H](C)O)NC(=O)[C@H](CC(C)C)N(C)C1=O` [pd301] ([dA][NMeF]S(Isopentyl)[NMeL]T[Sar][NMeL]S(tBu)[NMeF][NMeL]D-Piperidide; lactam N-11) gave a Papp A→B at 180 min of 1.7 ×10⁻⁶ cm/s. Work on `CCCN1CC(=O)N(C)[C@@H](Cc2ccccc2)C(=O)N[C@@H](CCCCC(F)F)C(=O)N(C)[C@@H](CC(C)C)C(=O)N[C@@H]([C@@H](C)O)C(=O)N(C)CC(=O)N(C)[C@@H](Cc2ccccc2)C(=O)N(C)[C@@H](CC(C)C)C(=O)N[C@@H](COC(C)(C)C)C(=O)N(C)[C@@H](C(C)C)C(=O)N[C@H](C(=O)N2CCCCC2)CC1=O` [pd336] ([NPrGly][NMeF][hNle(7,7-F2)][NMeL]T[Sar][NMeF][NMeL]S(tBu)[NMeV]D-Piperidide; lactam N-11) yielded a Papp A→B at 180 min of 2.5 ×10⁻⁶ cm/s. `CCCN1CC(=O)N(C)[C@@H](CC(C)C)C(=O)N[C@@H](COCC(C)(C)O)C(=O)N(C)[C@@H](Cc2ccccc2)C(=O)N(C)[C@@H](CC(C)C)C(=O)N[C@H](C(=O)N2CCCCC2)CC(=O)N[C@H](C(C)C)C(=O)N(C)[C@@H](Cc2ccccc2)C(=O)N[C@@H](CC(C)C)C(=O)N(C)[C@@H](CC(C)C)C(=O)N[C@@H]([C@@H](C)O)C1=O` [pd432] ([dV][NMeF]L[NMeL]T[NPrGly][NMeL]S(CH2CMe2OH)[NMeF][NMeL]D-Piperidide; lactam N-11) gave a Papp A→B at 180 min of 1.5 ×10⁻⁶ cm/s. With `CCCCN1CC(=O)N(C)[C@@H](Cc2ccccc2)C(=O)N(C)[C@@H](CC(C)C)C(=O)N[C@@H](C(C)C)C(=O)N(C)[C@@H](CC(C)C)C(=O)N[C@H](C(=O)N2CCCCC2)CC(=O)N(C)CC(=O)N(C)[C@@H](CC(C)C)C(=O)NC(COCCN2CCOCC2)C(=O)N(C)[C@@H](CC(C)C)C(=O)N[C@@H]([C@@H](C)O)C1=O` (stereo partly drawn) [pd484] ([Sar][NMeL][ξS](Ethyl(2-morpholino))[NMeL]T[NBuGly][NMeF][NMeL]V[NMeL]D-Piperidide; lactam N-11) the Papp A→B at 180 min was 1.8 ×10⁻⁶ cm/s.

Same assay, conditions: human, Caco-2, Caco-2 (cm/sec)
`CC[C@H](C)[C@@H]1NC(=O)[C@H](CC(C)C)N(C)C(=O)[C@@H](C)NC(=O)C[C@@H](C(=O)N2CCCCC2)NC(=O)[C@H](C(C)C)N(C)C(=O)[C@H](CC(C)C)N(C)C(=O)[C@H](COC(C)(C)C)NC(=O)[C@H](CC(C)C)N(C)C(=O)CN(C)C(=O)[C@H](Cc2c[nH]c3ccccc23)NC(=O)[C@H](CC(C)C)N(C)C1=O` [pd108] ([dA][NMeL]I[NMeL]W[Sar][NMeL]S(tBu)[NMeL][NMeV]D-Piperidide; lactam N-11) showed a Papp A→B at 180 min of 0.87 ×10⁻⁶ cm/s. `CC(C)C[C@@H]1NC(=O)[C@H](C)N(C)C(=O)C[C@@H](C(=O)N2CCCCC2)NC(=O)[C@H](CC(C)C)N(C)C(=O)CN(C)C(=O)[C@H]([C@@H](C)O)NC(=O)[C@H](CC(C)C)N(C)C(=O)[C@H](Cc2cccc(Cl)c2)N(C)C(=O)[C@H](C)NC(=O)[C@H](Cc2ccccc2)N(C)C(=O)[C@H](CC(C)C)N(C)C1=O` [pd161] ([NMeA]L[NMeL][NMeF]A[NMePhe(3-Cl)][NMeL]T[Sar][NMeL]D-Piperidide; lactam N-11) gave a Papp A→B at 180 min of 1.4 ×10⁻⁶ cm/s. `CC(C)C[C@@H]1NC(=O)[C@H](C)N(C)C(=O)C[C@@H](C(=O)N2CCCCC2)NC(=O)[C@H](CC(C)C)N(C)C(=O)CN(C)C(=O)[C@H]([C@@H](C)O)NC(=O)[C@H](Cc2ccccc2)N(C)C(=O)[C@H](Cc2ccccc2)N(C)C(=O)[C@H](CC(C)C)NC(=O)[C@H](Cc2ccccc2)N(C)C(=O)[C@H](CC(C)C)N(C)C1=O` [pd204] ([NMeA]L[NMeL][NMeF]L[NMeF][NMeF]T[Sar][NMeL]D-Piperidide; lactam N-11) showed a Papp A→B at 180 min of 2 ×10⁻⁶ cm/s. Compound `CC[C@H](C)[C@@H]1NC(=O)[C@H](C(C)C)N(C)C(=O)CCCN(C)C(=O)C[C@@H](C(=O)N2CCCCC2)NC(=O)[C@H](CC(C)C)N(C)C(=O)[C@H](C)N(C)C(=O)[C@H](Cc2ccc(O)cc2)NC(=O)[C@H](CC(C)C)N(C)C(=O)[C@H](COC(C)(C)C)NC(=O)[C@H](Cc2ccccc2)N(C)C(=O)[C@H](CC(C)C)N(C)C1=O` [pd125] ([NMeGABA][NMeV]I[NMeL][NMeF]S(tBu)[NMeL]Y[NMeA][NMeL]D-Piperidide; lactam N-11) has a Papp A→B at 180 min of 0.45 ×10⁻⁶ cm/s. With `CC[C@H](C)[C@@H]1NC(=O)[C@H](CC(C)C)N(C)C(=O)CN(C)C(=O)[C@H]([C@@H](C)O)NC(=O)[C@H](Cc2ccccc2)N(C)C(=O)[C@H](CC(C)C)NC(=O)[C@H](Cc2ccccc2)N(C)C(=O)[C@@H](CC(C)C)NC(=O)C[C@@H](C(=O)N2CCCCC2)NC(=O)[C@H](CC(C)C)N(C)C(=O)[C@H](Cc2ccccc2)N(C)C1=O` [pd225] ([dL][NMeF]L[NMeF]T[Sar][NMeL]I[NMeF][NMeL]D-Piperidide; lactam N-11) the Papp A→B at 180 min was 1 ×10⁻⁶ cm/s.

Same assay, conditions: human; Papp, Caco-2 membrane permeability, improved method; read-out: Caco-2
`CC[C@H](C)[C@H]1C(=O)N[C@@H]([C@@H](C)O)C(=O)N(C)CC(=O)N(C)[C@@H](CC)C(=O)N[C@H](C(=O)N2CCCCC2)CC(=O)N(C)[C@@H](C)C(=O)N[C@@H](Cc2ccc(C(F)F)cc2)C(=O)N(C)[C@@H](CC(C)C)C(=O)N(C)[C@@H](Cc2ccccc2)C(=O)N[C@@H](CC(C)C)C(=O)N(C)[C@@H](CC(C)C)C(=O)N1C` [pd473] ([NMeA][Phe(4-CHF2)][NMeL][NMeF]L[NMeL][NMeI]T[Sar][NMeAbu]D-Piperidide; lactam N-11) gave a Papp A→B at 180 min of 4.5 ×10⁻⁶ cm/s.
